Assay results from patent US20100292289A1 (priority 2007, published 2010).
Where two headings read alike, the source gives them in different places.

Columns and labels:
Assay type in all cases: cell-based
CB1 receptor [1] = target: T1, CB1 receptor (Homo sapiens, UniProt P21554); experiment: FLIPR calcium flux assay, agonist format, CB1; details: Emax of reference agonist CP-55,940 as 100%; for % Activation Agonist CB1: 1 μM
Method: (§1) A FLIPR assay was conducted to monitor agonist and antagonist selectivity for compounds of the invention against the CBI and GLP-1 receptors. Percentage activation and percentage inhibition values were determined for each compound on each of the GPCRs listed above. Agonist selectivity was determined upon initial addition of compounds followed by 10 minute incubation at 25° C. Following compound incubation, reference agonists were added at EC80 to determine percentage inhibition.
(§2) Agonist percentage activation determinations were obtained by assaying sample compounds and referencing the Emax control for each of the GPCRs profiled. Antagonist percentage inhibition determinations were obtained by assaying sample compounds and referencing the control EC80 wells for each of the GPCRs profiled. The protocol design is as follows:
(§3) Unless specified otherwise, all sample compounds were diluted in 100% anhydrous DMSO including all serial dilutions. Occasionally sample compounds were provided in a different solvent, in this case all master stock dilutions were performed in the specified diluent. All control wells contained identical solvent final concentrations as sample compound wells.
(§4) Sample compounds were transferred from a master stock solution into a daughter plate that was used in the assay. Each sample compound was diluted into assay buffer (1×HBSS with 20 mM HEPES) at an appropriate concentration to obtain final concentrations.
(§5) All sample compounds were plated at 1 μM in duplicate for assaying against all GPCRs. Reference agonists were handled as mentioned above serving as assay control. These reference agonists were handled as described above for both EMax and EC80 control wells. Assay was read for 90 seconds using the FLIPRTETRA. (This assay run added sample compounds and reference agonist to respective rows.) At the completion of the first “Single Addition” assay run, assay plate was removed from the FLIPRTetra and placed at 25° C. for 10 minutes.
(§6) All plates were subjected to appropriate baseline corrections. Once baseline corrections were processed, maximum fluorescence values were exported and data manipulated to calculate percentage activation, percentage inhibition, Z′, EC50, and IC50. Percentage activation data was calculated using Emax as 100% control. Percentage inhibition was calculated using EC80 as 0% inhibition.

GLP-1 receptor [2] = target: T2, GLP-1 receptor (Homo sapiens, UniProt P43220); experiment: FLIPR calcium flux assay, agonist format, GLP-1; details: Emax of reference ligand Glucagon as 100%; for % Activation Agonist GLP-1: 1 μM
Method: as §1, §2, §3, §4, §5, §6

CB1 receptor [3] = target: T1, CB1 receptor; experiment: FLIPR calcium flux assay, antagonist format, CB1; details: reference agonist CP-55,940 at EC80 as 0% inhibition; for % Inhibition Antagonist CB1: 1 μM
Method: as §1, §2, §3, §4
(§7) Using the EC50 values determined previously, stimulated all pre-incubated sample compound and reference antagonist (if applicable) wells with EC80 of reference agonist. Read for 90 seconds using the FLIPRTETRA. (This assay added reference agonist to respective wells—then fluorescence measurements were collected to calculate percentage inhibition.)
as §6

GLP-1 receptor [4] = target: T2, GLP-1 receptor; experiment: FLIPR calcium flux assay, antagonist format, GLP-1; details: for inhibition at 1 µM: read-out: % Inhibition Antagonist GLP-1
Method: as §1, §2, §3, §4, §7, §6

[5] = 1 μM, reference ligand Glucagon at EC80 as 0% inhibition

T1 sequence (P21554 whole entry): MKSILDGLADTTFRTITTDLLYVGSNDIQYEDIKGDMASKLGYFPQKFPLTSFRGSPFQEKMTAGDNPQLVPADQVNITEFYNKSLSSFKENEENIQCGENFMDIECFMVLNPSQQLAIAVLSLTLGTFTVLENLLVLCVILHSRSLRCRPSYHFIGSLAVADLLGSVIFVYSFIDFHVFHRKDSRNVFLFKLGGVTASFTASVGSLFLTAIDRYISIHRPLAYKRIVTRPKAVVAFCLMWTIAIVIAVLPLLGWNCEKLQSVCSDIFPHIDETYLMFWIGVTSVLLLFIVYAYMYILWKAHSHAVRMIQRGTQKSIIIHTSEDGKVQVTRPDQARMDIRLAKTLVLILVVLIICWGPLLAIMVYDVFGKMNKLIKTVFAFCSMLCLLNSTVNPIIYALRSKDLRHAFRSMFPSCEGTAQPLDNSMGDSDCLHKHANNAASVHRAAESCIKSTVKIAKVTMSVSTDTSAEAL
T2 sequence (P43220 24-463): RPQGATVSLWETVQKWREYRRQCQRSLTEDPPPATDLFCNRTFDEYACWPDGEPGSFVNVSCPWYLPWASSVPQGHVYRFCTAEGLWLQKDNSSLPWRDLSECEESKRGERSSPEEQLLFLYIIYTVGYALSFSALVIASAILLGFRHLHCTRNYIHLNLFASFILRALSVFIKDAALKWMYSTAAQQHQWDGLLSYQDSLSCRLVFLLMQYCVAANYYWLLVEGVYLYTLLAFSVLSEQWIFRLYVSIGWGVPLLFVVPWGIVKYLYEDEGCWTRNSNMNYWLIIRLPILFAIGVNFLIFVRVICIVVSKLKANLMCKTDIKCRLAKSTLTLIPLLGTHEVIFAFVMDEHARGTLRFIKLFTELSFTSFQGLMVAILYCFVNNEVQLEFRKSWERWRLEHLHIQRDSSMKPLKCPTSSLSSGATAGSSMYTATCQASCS

Compound | activation at 1 µM (CB1 receptor [1]) [%] | activation at 1 µM (GLP-1 receptor [2]) [%] | inhibition at 1 µM (CB1 receptor [3]) [%] | inhibition at 1 µM (GLP-1 receptor [4]; [5]) [%] | % Activation Agonist CB1 (CB1 receptor [1]) [%] | % Activation Agonist GLP-1 (GLP-1 receptor [2]) [%] | % Inhibition Antagonist CB1 (CB1 receptor [3]) [%] | % Inhibition Antagonist GLP-1 (GLP-1 receptor [4]; [5]) [%] | inhibition at 1 µM (GLP-1 receptor [4]) [%]
COc1ccc2c(c1)c(CC(=O)NCC[C@@H](Oc1ccc(C(F)(F)F)cc1)c1ccccc1)c(C)n2C(=O)c1ccc(Cl)cc1 [Compound 7a] | -0.5 | 4.2 | 46.9 | 0 |  |  |  |  | 
CC(C(=O)N(C)CC[C@H](Oc1ccc(C(F)(F)F)cc1)c1ccccc1)c1ccc(CC2CCCC2=O)cc1 (some centres unmarked) [Compound 29b] |  |  |  |  | −0.2 | 6.2 | 31.2 | 0.0 | 
C[C@H](C(=O)N(C)CC[C@H](Oc1ccc(C(F)(F)F)cc1)c1ccccc1)c1ccc(C(F)(F)F)cc1 [Compound 33f] | -0.5 | -3.5 | 34 | 11.5 |  |  |  |  | 
CC(C(=O)N(C)CC[C@H](Oc1ccc(C(F)(F)F)cc1)c1ccccc1)c1ccc(C(F)(F)F)cc1 (some centres unmarked) [Compound 33b] | 0.5 | 17.6 | 45.8 | ~0 |  |  |  |  | 
C[C@H]1CCN(C(C(=O)NCCOc2ccc(C(F)(F)F)cc2)c2nc(-c3ccc(C(F)(F)F)cc3)no2)C[C@@H]1COc1ccc(C(F)(F)F)cc1 (some centres unmarked) [Compound 20] |  |  |  |  | 1.9 | 7.5 | 14.5 | −14.4 | 
O=C(NCC[C@@H](Oc1ccc(C(F)(F)F)cc1)c1ccccc1)C(c1nc(-c2ccc(C(F)(F)F)cc2)no1)N1CCC[C@@H](COc2ccc(C(F)(F)F)cc2)C1 (some centres unmarked) [Compound 19] |  |  |  |  | 0.5 | 6.5 |  |  | 
CCc1ccc(C(C)C(=O)N(C)CC[C@@H](Oc2ccc(C(F)(F)F)cc2)c2ccccc2)cc1 (some centres unmarked) [Compound 34a] | -2.9 | -0.8 | 99 | -1 |  |  |  |  | 
C[C@@H](C(=O)N(C)CC[C@@H](Oc1ccc(C(F)(F)F)cc1)c1ccccc1)c1ccc(C(F)(F)F)cc1 [Compound 33c] | -0.9 | 0.8 | 80.1 | 0.2 |  |  |  |  | 
C[C@@H](C(=O)N(C)CC[C@H](Oc1ccc(C(F)(F)F)cc1)c1ccccc1)c1ccc(C(F)(F)F)cc1 [Compound 33e] | 1.7 | 0.4 | 0.8 | 9.4 |  |  |  |  | 
CC(C)Cc1ccc(CC(=O)N(C)CC[C@@H](Oc2ccc(C(F)(F)F)cc2)c2ccccc2)cc1 [Compound 32a] | 4.5 | 2.9 | 90.7 | 0.8 |  |  |  |  | 
C[C@@H]1CCN(C(C(=O)NCC[C@@H](Oc2ccc(C(F)(F)F)cc2)c2ccccc2)c2nc(-c3ccc(C(F)(F)F)cc3)no2)C[C@@H]1COc1ccc(C(F)(F)F)cc1 (some centres unmarked) [Compound 18] |  |  |  |  | 6.2 | 20.6 |  |  | 
CC(C)Cc1cccc(C(C)C(=O)N(C)CC[C@@H](Oc2ccc(C(F)(F)F)cc2)c2ccccc2)c1 (some centres unmarked) [Compound 35a] | -1 | -0.9 | 80.5 | 7.7 |  |  |  |  | 
CC(C(=O)N(C)CC[C@H](Oc1ccc(C(F)(F)F)cc1)c1ccccc1)c1ccc(CN(C)C)cc1 (some centres unmarked) [Compound 25b] | 0.2 | -3.3 | 15.2 | 6.9 |  |  |  |  | 
CC(C)Cc1ccc(C2(C(=O)N(C)CC[C@@H](Oc3ccc(C(F)(F)F)cc3)c3ccccc3)CCC2)cc1 [Compound 30a] |  |  |  |  | 1.0 | −3.7 | 84.6 | 7.5 | 
C[C@H]1CCN(C(C(=O)NCC[C@@H](Oc2ccc(C(F)(F)F)cc2)c2ccccc2)c2nc(-c3ccc(C(F)(F)F)cc3)no2)C[C@@H]1COc1ccc(C(F)(F)F)cc1 (some centres unmarked) [Compound 17] |  |  |  |  | 8.6 | 9.4 |  |  | 
C[C@H](C(=O)N(C)CCC(Oc1ccc(C(F)(F)F)cc1)c1ccccc1)c1cccc(C(=O)c2ccccc2)c1 (some centres unmarked) [Compound 14] | 1.2 | -2.4 | 56.6 | 17.2 |  |  |  |  | 

Compound | activation at 1 µM (CB1 receptor [1]) [%] | activation at 1 µM (GLP-1 receptor [2]) [%] | inhibition at 1 µM (CB1 receptor [3]) [%] | inhibition at 1 µM (GLP-1 receptor [4]; [5]) [%] | % Activation Agonist CB1 (CB1 receptor [1]) [%] | % Activation Agonist GLP-1 (GLP-1 receptor [2]) [%] | % Inhibition Antagonist CB1 (CB1 receptor [3]) [%] | % Inhibition Antagonist GLP-1 (GLP-1 receptor [4]; [5]) [%] | inhibition at 1 µM (GLP-1 receptor [4]) [%]
CC(C)Cc1cccc(C(C)C(=O)N(C)CC[C@H](Oc2ccc(C(F)(F)F)cc2)c2ccccc2)c1 (some centres unmarked) [Compound 35b] | 1.1 | 3.8 | 38.9 | 0.3 |  |  |  |  | 
CCc1ccc(C(C)C(=O)N(C)CC[C@H](Oc2ccc(C(F)(F)F)cc2)c2ccccc2)cc1 (some centres unmarked) [Compound 34b] | -1.9 | 0.2 | 76.4 | 1.6 |  |  |  |  | 
CC(C)Cc1ccc(C2(C(=O)N(C)CC[C@H](Oc3ccc(C(F)(F)F)cc3)c3ccccc3)CC2)cc1 [Compound 36b] | -1.1 | 0.5 | 15.5 | 5.5 |  |  |  |  | 
O=C(c1ccccc1)c1ccc2n1CCC2C(=O)NCC[C@@H](Oc1ccc(C(F)(F)F)cc1)c1ccccc1 (some centres unmarked) [Compound 5a] | 0.3 | 0.4 | 48.7 | -6.3 |  |  |  |  | 
CC(C)Cc1ccccc1C(C)C(=O)N(C)CC[C@@H](Oc1ccc(C(F)(F)F)cc1)c1ccccc1 (some centres unmarked) [Compound 38a] |  |  | 98.5 |  |  |  |  |  | -20.2
CC(C)Cc1ccc(C2(C(=O)N(C)CC[C@H](Oc3ccc(C(F)(F)F)cc3)c3ccccc3)CCC2)cc1 [Compound 30b] |  |  |  |  | −0.8 | −3.4 | 48.3 | 9.7 | 
CC(C)Cc1ccc(C2(C(=O)N(C)CC[C@@H](Oc3ccc(C(F)(F)F)cc3)c3ccccc3)CC2)cc1 [Compound 36a] | -1.2 | 4.4 | 59.9 | 11 |  |  |  |  | 
CC(C(=O)N(C)CC[C@@H](Oc1ccc(C(F)(F)F)cc1)c1ccccc1)c1ccc(CN(C)C)cc1 (some centres unmarked) [Compound 25a] | 0.8 | -2.7 | 79.9 | 5.7 |  |  |  |  | 
CN(Cc1ccccc1)C1CCN(C(C(=O)NCC[C@@H](Oc2ccc(C(F)(F)F)cc2)c2ccccc2)c2nc(-c3ccc(C(F)(F)F)cc3)no2)CC1 (some centres unmarked) [Compound 16] | 6.9 | 21.3 |  |  |  |  |  |  | 
CC(C(=O)N(C)CC[C@@H](Oc1ccc(C(F)(F)F)cc1)c1ccccc1)c1ccc(C(F)(F)F)cc1 (some centres unmarked) [Compound 33a] |  |  |  |  | −0.3 | 0.9 | 90.7 | 11.4 | 
COc1ccc2c(c1)c(CC(=O)N(C)CCC(Oc1ccc(C(F)(F)F)cc1)c1ccccc1)c(C)n2C(=O)c1ccc(Cl)cc1 (centres unmarked) [Compound 15] | 0 | -0.2 | 34.4 | -5.1 |  |  |  |  | 
C[C@H](C(=O)N(C)CC[C@@H](Oc1ccc(C(F)(F)F)cc1)c1ccccc1)c1ccc(C(F)(F)F)cc1 [Compound 33d] | 1.4 | 0.6 | 82.8 | 11.4 |  |  |  |  | 
CN(Cc1ccccc1)C1CCN(C(C(=O)NCCOc2ccc(C(F)(F)F)cc2)c2nc(-c3ccc(C(F)(F)F)cc3)no2)CC1 (centres unmarked) [Compound 24] |  |  |  |  | 1.6 | 5.9 | 4.6 | −1.6 | 
CN(CCC(Oc1ccc(C(F)(F)F)cc1)c1ccccc1)C(=O)C1CCn2c(C(=O)c3ccccc3)ccc21 (centres unmarked) [Compound 13] | 0.9 | 0.8 | 37.7 | -15.4 |  |  |  |  | 
CC(C)Cc1ccc(CC(=O)N(C)CC[C@H](Oc2ccc(C(F)(F)F)cc2)c2ccccc2)cc1 [Compound 32b] |  |  |  |  | 2.1 | −1.8 | 23.0 | −0.8 | 
O=C(Cc1nc(-c2ccc(C(F)(F)F)cc2)no1)NCC[C@@H](Oc1ccc(C(F)(F)F)cc1)c1ccccc1 [Compound 23] |  |  |  |  | 7.8 | 11.9 |  |  | 
